Laboratory results taken from patent US7612113B2, “Hydroxy tetrahydro-naphthalenylurea derivatives” (Xention Limited, priority 2002, dated 2009).
Like-named read-outs stand apart in the source and are kept apart here.

Tests used:
human VR1 = biological target: T1, human VR1 (Homo sapiens, UniProt Q8NER1); assay: capsaicin-induced Ca2+ influx in the human VR1-transfected CHO cell line (Assay 1); assay type: cell-based; conditions: 10 nM capsaicin, human VR1-CHOluc9aeq cells, read-out: activity class
T1 construct: expressed in transfected cells
T1 sequence (Q8NER1 whole entry): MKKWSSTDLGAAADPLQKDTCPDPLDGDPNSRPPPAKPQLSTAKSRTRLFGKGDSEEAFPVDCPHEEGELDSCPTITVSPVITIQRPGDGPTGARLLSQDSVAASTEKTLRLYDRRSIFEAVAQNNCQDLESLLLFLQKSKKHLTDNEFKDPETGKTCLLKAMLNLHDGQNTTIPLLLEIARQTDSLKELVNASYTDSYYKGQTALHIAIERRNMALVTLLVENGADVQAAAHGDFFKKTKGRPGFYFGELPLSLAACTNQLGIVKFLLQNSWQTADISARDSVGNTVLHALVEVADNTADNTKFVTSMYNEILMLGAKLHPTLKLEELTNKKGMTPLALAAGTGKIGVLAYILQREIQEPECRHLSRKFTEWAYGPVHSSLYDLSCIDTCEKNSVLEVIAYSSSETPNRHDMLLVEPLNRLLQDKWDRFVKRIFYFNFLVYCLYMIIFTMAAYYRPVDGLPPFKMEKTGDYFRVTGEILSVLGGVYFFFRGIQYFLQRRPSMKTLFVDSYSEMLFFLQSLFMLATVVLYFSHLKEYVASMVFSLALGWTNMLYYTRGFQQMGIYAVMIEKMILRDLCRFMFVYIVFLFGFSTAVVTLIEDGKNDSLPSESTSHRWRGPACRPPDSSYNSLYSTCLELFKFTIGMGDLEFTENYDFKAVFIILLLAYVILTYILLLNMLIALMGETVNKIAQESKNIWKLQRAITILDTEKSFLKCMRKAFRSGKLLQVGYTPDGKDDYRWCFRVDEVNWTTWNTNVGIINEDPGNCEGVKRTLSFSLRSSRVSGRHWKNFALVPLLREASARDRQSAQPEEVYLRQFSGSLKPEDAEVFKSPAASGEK
Text: [Measurement of capsaicin-induced Ca^2+ influx in the human VR1-transfected CHO cell line] (Assay 1)
• (1) Establishment of the Human VR1-CHOluc9aeq Cell Line • Human vanilloid receptor (hVR1) cDNA was cloned from libraries of axotomized dorsal root ganglia (WO 00/29577). The cloned hVR1 cDNA was constructed with pcDNA3 vector and transfected into a CHOluc9aeq cell line. The cell line contains aequorin and CRE-luciferase reporter genes as read-out signals. The transfectants were cloned by limiting dilution in selection medium (DMEM/F12 medium (Gibco BRL) supplemented with 10% FCS, 1.4 mM Sodium pyruvate, 20 mM HEPES, 0.15% Sodium bicarbonate, 100 U/ml penicillin, 100 μg/ml streptomycin, 2 mM glutamine, non-essential amino acids and 2 mg/ml G418). Ca^2+ influx was examined in the capsaicin-stimulated clones. A high responder clone was selected and used for further experiments in the project. The human VR1-CHOluc9aeq cells were maintained in the selection medium and passaged every 3-4 days at 1-2.5×10^5 cells/flask ([…]). • (2) Measurement of Ca^2+ Influx Using FDSS-3000 • Human VR1-CHOluc9aeq cells were suspended in a culture medium which is the same as the selection medium except for G418 and seeded at a density of 1,000 cells per well into 384-well plates (black walled clear-base/Nalge Nunc International). Following the culture for 48 hrs the medium was changed to 2 μM Fluo-3 AM (Molecular Probes) and 0.02% Puronic F-127 in assay buffer (Hank's balanced salt solution (HBSS), 17 mM HEPES (pH7.4), 1 mM Probenecid, 0.1% BSA) and the cells were incubated for 60 min at. 25° C. After washing twice with assay buffer the cells were incubated with a test compound or vehicle for 20 min at 25° C. Mobilization of cytoplasmic Ca^2+ was measured by FDSS-3000 (λex=488 nm, λem=540 nm/Hamamatsu Photonics) for 60 sec after the stimulation with 10 nM capsaicin. Integral R was calculated and compared with controls. [Measurement of the Capsaicin-Induced Ca^2+ Influx in Primary Cultured Rat Dorsal Root Ganglia Neurons] (Assay 2) • (1) Preparation of Rat Dorsal Root Ganglia Neurons • New born Wister rats (5-11 days) were sacrificed and dorsal root ganglia (DRG) was removed. DRG was incubated with 0.1% trypsin (Gibco BRL) in PBS(−) (Gibco BRL) for 30 min at 37° C., then a half volume of fetal calf serum (FCS) was added and the cells were spun down. The DRG neuron cells were resuspended in Ham F12/5% FCS/5% horse serum (Gibco BRL) and dispersed by repeated pipetting and passing through 70 μm mesh Falcon). The culture plate was incubated for 3 hours at 37° C. to remove contaminating Schwann cells. Non-adherent cells were recovered and further cultured in laminin-coated 384 well plates (Nunc) at 1×10^4 cells/50 μl/well for 2 days in the presence of 50 ng/ml recombinant rat NGF (Sigma) and 50 μM 5-fluorodeoxyuridine (Sigma). • (2) Ca^2+ Mobilization Assay • DRG neuron cells were washed twice with HBSS supplemented with 17 mM HEPES (pH 7.4) and 0.1% BSA. After incubating with 2 μM fluo-3AM (Molecular Probe), 0.02% PF127 (Gibco BRL) and 1 mM probenecid (Sigma) for 40 min at 37° C., cells were washed 3 times. The cells were incubated with VR1 antagonists or vehicle (dimethylsulphoxide) and then with 1 μM capsaicin in FDSS-6000 (λex=480 nm, λem=520 nm/Hamamatsu Photonics). The fluorescence changes at 480 nm were monitored for 2.5 min. Integral R was calculated and compared with controls. [Organ Bath Assay to Measure the Capsaicin-Induced Bladder Contraction] (Assay 3)
The data corresponds to the compounds as yielded by solid phase synthesis and thus to levels of purity of about 40 to 90%. For practical reasons, the compounds are grouped in four classes of activity as follows: IC50=A(<or=)0.1 μM<B(<or=)0.5 μM<C(<or=)1 μM<D

Structure (SMILES) | melting point [°C] | IC50 (human VR1; Table 1) [nM] | IC50 (human VR1; Table 2) [nM] | other results
O=C(Nc1ccc(Cl)c(C(F)(F)F)c1)Nc1cccc2c1CC(O)CC2 (stereo not drawn) [Example 1-1, N-[4-chloro-3-(trifluoromethyl)phenyl]-N′-(7-hydroxy-5,6,7,8-tetrahydro-1-naphthalenyl)urea] | 227 to 228 |  |  | 
O=C(Nc1ccccc1Cl)Nc1cccc2c1CC(O)CC2 (stereo not drawn) [Example 2-2] | 197 to 199 | 100 to 500 |  | 
O=C(Nc1cccc(Cl)c1)Nc1cccc2c1CC(O)CC2 (stereo not drawn) [Example 2-3] | 216 to 218 | < 100 |  | 
O=C(Nc1ccc(Cl)cc1)Nc1cccc2c1CC(O)CC2 (stereo not drawn) [Example 2-4] | 229 to 231 | < 100 |  | 
COc1cccc(NC(=O)Nc2cccc3c2CC(O)CC3)c1 (stereo not drawn) [Example 2-5] | 187 to 189 | 100 to 500 |  | 
COc1ccc(NC(=O)Nc2cccc3c2CC(O)CC3)cc1 (stereo not drawn) [Example 2-6] | 213 to 215 | > 1000 |  | 
O=C(Nc1ccccc1C(F)(F)F)Nc1cccc2c1CC(O)CC2 (stereo not drawn) [Example 2-7] | 217 to 219 | 500 to 1000 |  | 
O=C(Nc1cccc(C(F)(F)F)c1)Nc1cccc2c1CC(O)CC2 (stereo not drawn) [Example 2-8] | 227 to 228 | < 100 |  | 
O=C(Nc1ccc(C(F)(F)F)cc1)Nc1cccc2c1CC(O)CC2 (stereo not drawn) [Example 2-9] | 222 to 224 | < 100 |  | 
CCOC(=O)c1ccccc1NC(=O)Nc1cccc2c1CC(O)CC2 (stereo not drawn) [Example 2-10] | 178 to 180 | > 1000 |  | 
CCOC(=O)c1cccc(NC(=O)Nc2cccc3c2CC(O)CC3)c1 (stereo not drawn) [Example 2-11] | 176 to 178 | < 100 |  | 
CCOC(=O)c1ccc(NC(=O)Nc2cccc3c2CC(O)CC3)cc1 (stereo not drawn) [Example 2-12] | 204 to 206 | < 100 |  | 
O=C(Nc1cccc2c1CC(O)CC2)Nc1cccc2ccccc12 (stereo not drawn) [Example 2-13] | 250 to 252 | < 100 |  | 
O=C(Nc1ccc2ccccc2c1)Nc1cccc2c1CC(O)CC2 (stereo not drawn) [Example 2-14] | 212 to 214 | < 100 |  | 
O=C(Nc1ccc(F)cc1)Nc1cccc2c1CC(O)CC2 (stereo not drawn) [Example 2-15] | 214 to 216 | 100 to 500 |  | 
O=C(Nc1ccc(Br)cc1)Nc1cccc2c1CC(O)CC2 (stereo not drawn) [Example 2-16] | 237 to 239 | < 100 |  | 
O=C(Nc1ccc(Cl)c(Cl)c1)Nc1cccc2c1CC(O)CC2 (stereo not drawn) [Example 2-17] | 234 to 235 | < 100 |  | 
Cc1cccc(NC(=O)Nc2cccc3c2CC(O)CC3)c1 (stereo not drawn) [Example 2-18] | 198 to 200 | 100 to 500 |  | 
CC(C)c1ccc(NC(=O)Nc2cccc3c2CC(O)CC3)cc1 (stereo not drawn) [Example 2-19] | 186 to 188 | < 100 |  | 
Nc1ccc(CNC(=O)Nc2cccc3c2CC(O)CC3)cc1 (stereo not drawn) [Example 4-31] |  |  | 500 to 1000 | 

Structure (SMILES) | melting point [°C] | IC50 (human VR1; Table 1) [nM] | IC50 (human VR1; Table 2) [nM] | other results
Nc1ccccc1CNC(=O)Nc1cccc2c1CC(O)CC2 (stereo not drawn) [Example 4-32] |  |  | 500 to 1000 | 
CCOC(=O)Cc1ccc(NC(=O)Nc2cccc3c2CC(O)CC3)cc1 (stereo not drawn) [Example 4-33] |  |  | 100 to 500 | 
CN(C)c1ccc(CNC(=O)Nc2cccc3c2CC(O)CC3)cc1 (stereo not drawn) [Example 4-34] |  |  | < 100 | 
O=C(NCc1ccc(Cl)c(C(F)(F)F)c1)Nc1cccc2c1CC(O)CC2 (stereo not drawn) [Example 4-35] |  |  | < 100 | 
O=C(NCCc1ccc(Cl)cc1)Nc1cccc2c1CC(O)CC2 (stereo not drawn) [Example 4-36] |  |  | < 100 | 
O=C(NCc1ccc(C(F)(F)F)c(F)c1)Nc1cccc2c1CC(O)CC2 (stereo not drawn) [Example 4-37] |  |  | < 100 | 
Cc1ccc(Oc2ccc(NC(=O)Nc3cccc4c3CC(O)CC4)cc2)cc1 (stereo not drawn) [Example 4-38] |  |  | < 100 | 
O=C(Nc1ccc(Oc2ccc(Cl)cc2)cc1)Nc1cccc2c1CC(O)CC2 (stereo not drawn) [Example 4-39] |  |  | < 100 | 
O=C(Nc1ccc(OC(F)(F)F)cc1)Nc1cccc2c1CC(O)CC2 (stereo not drawn) [Example 4-40] |  |  | < 100 | 
CC(NC(=O)Nc1cccc2c1CC(O)CC2)c1ccc(F)cc1 (stereo not drawn) [Example 4-41] |  |  | 100 to 500 | 
CC(NC(=O)Nc1cccc2c1CC(O)CC2)c1ccc(Br)cc1 (stereo not drawn) [Example 4-42] |  |  | < 100 | 
O=C(Nc1cccc2c1CC(O)CC2)NC(c1ccccc1)c1ccccc1 (stereo not drawn) [Example 4-43] |  |  | 500 to 1000 | 
CC(C)(NC(=O)Nc1cccc2c1CC(O)CC2)c1ccc(Cl)cc1 (stereo not drawn) [Example 4-44] |  |  | 100 to 500 | 
O=C(NCc1ccc(SC(F)(F)F)cc1)Nc1cccc2c1CC(O)CC2 (stereo not drawn) [Example 4-45] |  |  | < 100 | 
O=C(NCc1cccc2ccccc12)Nc1cccc2c1CC(O)CC2 (stereo not drawn) [Example 4-46] |  |  | < 100 | 
N#CCc1ccc(NC(=O)Nc2cccc3c2CC(O)CC3)cc1 (stereo not drawn) [Example 4-47] |  |  | 100 to 500 | 
CC(NC(=O)Nc1cccc2c1CC(O)CC2)c1ccccc1 (stereo not drawn) [Example 4-48] |  |  | 100 to 500 | 
CC(NC(=O)Nc1cccc2c1CC(O)CC2)c1cccc2ccccc12 (stereo not drawn) [Example 4-49] |  |  | < 100 | 
NS(=O)(=O)c1ccc(CNC(=O)Nc2cccc3c2CC(O)CC3)cc1 (stereo not drawn) [Example 4-50] |  |  | 500 to 1000 | 
O=C(NCc1ccc(C(F)(F)F)c(NC2CCCC2)c1)Nc1cccc2c1CC(O)CC2 (stereo not drawn) [Example 4-51] |  |  | < 100 | 

Structure (SMILES) | melting point [°C] | IC50 (human VR1; Table 1) [nM] | IC50 (human VR1; Table 2) [nM] | other results
O=C(NCc1ccc(C(F)(F)F)c(NC2CCCC2)c1)Nc1cccc2c1CC(O)CC2 (stereo not drawn) [Example 4-52] |  |  | < 100 | 
O=C(NCCc1ccc(Cl)cc1)Nc1cccc2c1C[C@H](O)CC2 [Example 4-53] |  |  | < 100 | 
O=C(NCCc1ccc(Cl)cc1)Nc1cccc2c1C[C@@H](O)CC2 [Example 4-54] |  |  | < 100 | 
O=C(Nc1ccccc1F)Nc1cccc2c1CC(O)CC2 (stereo not drawn) [Example 5-2] |  |  |  | IC50 (human VR1; Table 3): 500 to 1000 nM
O=C(Nc1cccc(Br)c1)Nc1cccc2c1CC(O)CC2 (stereo not drawn) [Example 5-5] |  |  |  | IC50 (human VR1; Table 3): < 100 nM
Cc1ccc(NC(=O)Nc2cccc3c2CC(O)CC3)cc1 (stereo not drawn) [Example 5-7] |  |  |  | IC50 (human VR1; Table 3): 100 to 500 nM
CC(C)c1cccc(NC(=O)Nc2cccc3c2CC(O)CC3)c1 (stereo not drawn) [Example 5-8] |  |  |  | IC50 (human VR1; Table 3): < 100 nM
CC(C)(C)c1ccc(NC(=O)Nc2cccc3c2CC(O)CC3)cc1 (stereo not drawn) [Example 5-9] |  |  |  | IC50 (human VR1; Table 3): < 100 nM
COc1cc(NC(=O)Nc2cccc3c2CC(O)CC3)cc(C(F)(F)F)c1 (stereo not drawn) [Example 5-12] |  |  |  | IC50 (human VR1; Table 3): < 100 nM
CCOc1ccc(NC(=O)Nc2cccc3c2CC(O)CC3)cc1 (stereo not drawn) [Example 5-14] |  |  |  | IC50 (human VR1; Table 3): < 100 nM
COc1ccc(NC(=O)Nc2cccc3c2CC(O)CC3)cc1O (stereo not drawn) [Example 5-15] |  |  |  | IC50 (human VR1; Table 3): 500 to 1000 nM
CSc1ccc(NC(=O)Nc2cccc3c2CC(O)CC3)cc1 (stereo not drawn) [Example 5-16] |  |  |  | IC50 (human VR1; Table 3): 100 to 500 nM
COc1ccc(NC(=O)Nc2cccc3c2CC(O)CC3)cc1F (stereo not drawn) [Example 5-17] |  |  |  | IC50 (human VR1; Table 3): < 100 nM
COc1ccc(NC(=O)Nc2cccc3c2CC(O)CC3)cc1OC (stereo not drawn) [Example 5-18] |  |  |  | IC50 (human VR1; Table 3): 100 to 500 nM
COc1ccc(NC(=O)Nc2cccc3c2CC(O)CC3)cc1Cl (stereo not drawn) [Example 5-19] |  |  |  | IC50 (human VR1; Table 3): < 100 nM
O=C(Nc1ccc(O)cc1)Nc1cccc2c1CC(O)CC2 (stereo not drawn) [Example 5-20] |  |  |  | IC50 (human VR1; Table 3): 500 to 1000 nM
Cc1cc(C)cc(NC(=O)Nc2cccc3c2CC(O)CC3)c1 (stereo not drawn) [Example 5-21] |  |  |  | IC50 (human VR1; Table 3): < 100 nM
Cc1ccc(NC(=O)Nc2cccc3c2CC(O)CC3)cc1C (stereo not drawn) [Example 5-22] |  |  |  | IC50 (human VR1; Table 3): < 100 nM
CCc1cccc(NC(=O)Nc2cccc3c2CC(O)CC3)c1 (stereo not drawn) [Example 5-23] |  |  |  | IC50 (human VR1; Table 3): < 100 nM
Cc1cc(NC(=O)Nc2cccc3c2CC(O)CC3)ccc1F (stereo not drawn) [Example 5-24] |  |  |  | IC50 (human VR1; Table 3): < 100 nM
